Assay [1] deals with Voltage-gated N-type calcium channel alpha-1B subunit/Amyloid beta A4 precursor protein-binding family A member 1 (Homo sapiens, UniProt Q00975+Q02410). The format is protein assay.
Assay [2] has as its target T1, Apoptotic protease-activating factor 1 (Homo sapiens, UniProt O14727).
T1 sequence (O14727 whole entry): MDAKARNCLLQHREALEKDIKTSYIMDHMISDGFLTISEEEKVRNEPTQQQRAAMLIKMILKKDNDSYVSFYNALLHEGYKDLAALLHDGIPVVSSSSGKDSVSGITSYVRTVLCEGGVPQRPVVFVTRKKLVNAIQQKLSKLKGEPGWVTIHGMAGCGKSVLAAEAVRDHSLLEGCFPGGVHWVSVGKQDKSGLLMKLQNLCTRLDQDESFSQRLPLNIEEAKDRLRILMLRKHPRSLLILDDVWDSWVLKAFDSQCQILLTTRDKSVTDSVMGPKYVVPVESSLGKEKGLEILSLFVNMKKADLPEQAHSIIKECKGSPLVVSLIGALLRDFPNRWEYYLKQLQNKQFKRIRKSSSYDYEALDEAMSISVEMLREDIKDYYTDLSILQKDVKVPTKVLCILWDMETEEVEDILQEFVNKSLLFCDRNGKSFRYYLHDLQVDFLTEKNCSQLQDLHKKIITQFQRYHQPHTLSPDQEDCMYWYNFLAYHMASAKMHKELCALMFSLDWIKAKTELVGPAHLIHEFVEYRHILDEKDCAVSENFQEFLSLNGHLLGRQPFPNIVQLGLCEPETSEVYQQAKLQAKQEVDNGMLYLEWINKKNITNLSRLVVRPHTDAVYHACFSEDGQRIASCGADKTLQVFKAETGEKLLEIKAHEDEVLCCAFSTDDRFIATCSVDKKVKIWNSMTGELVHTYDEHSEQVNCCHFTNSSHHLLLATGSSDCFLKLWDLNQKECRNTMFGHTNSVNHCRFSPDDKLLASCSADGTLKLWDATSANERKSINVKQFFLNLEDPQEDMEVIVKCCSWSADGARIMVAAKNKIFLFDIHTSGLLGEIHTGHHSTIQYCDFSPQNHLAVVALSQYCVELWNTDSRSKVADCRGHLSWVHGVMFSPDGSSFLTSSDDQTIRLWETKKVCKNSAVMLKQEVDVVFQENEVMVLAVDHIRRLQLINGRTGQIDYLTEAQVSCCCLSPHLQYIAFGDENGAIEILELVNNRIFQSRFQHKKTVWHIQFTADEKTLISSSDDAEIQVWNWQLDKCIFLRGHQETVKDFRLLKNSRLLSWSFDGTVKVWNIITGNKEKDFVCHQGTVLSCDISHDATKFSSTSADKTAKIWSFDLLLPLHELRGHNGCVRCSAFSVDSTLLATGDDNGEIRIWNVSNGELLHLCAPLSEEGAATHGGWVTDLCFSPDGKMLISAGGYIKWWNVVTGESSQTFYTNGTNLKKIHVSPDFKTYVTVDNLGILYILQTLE
The format is functional.

The next assay concerns INS1. Kind of assay: beta cell apoptosis inhibitors, cytokine rescue, dose response, luminescence, retest (AID 449756).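 Further: cell death triggered by IL-1 beta plus TNF-alpha plus IFN-gamma mixture; protective hits raise ATP signal compared with cytokine alone wells.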 The class given is functional, cell-based. The conditions noted are these: Rattus norvegicus, INS1.

Active and inactive are the calls of the source. For most assays here, no stated cut-off is given here; in the data, actives have a measured IC50 and inactives only a lower limit.

A word on the IC50: it is the midpoint of a concentration-inhibition curve. One may read the AC50 as the midpoint of the concentration-response curve, whichever way the signal moves.

Sequence of Voltage-gated N-type calcium channel alpha-1B subunit/Amyloid beta A4 precursor protein-binding family A member 1 (Q00975 whole entry): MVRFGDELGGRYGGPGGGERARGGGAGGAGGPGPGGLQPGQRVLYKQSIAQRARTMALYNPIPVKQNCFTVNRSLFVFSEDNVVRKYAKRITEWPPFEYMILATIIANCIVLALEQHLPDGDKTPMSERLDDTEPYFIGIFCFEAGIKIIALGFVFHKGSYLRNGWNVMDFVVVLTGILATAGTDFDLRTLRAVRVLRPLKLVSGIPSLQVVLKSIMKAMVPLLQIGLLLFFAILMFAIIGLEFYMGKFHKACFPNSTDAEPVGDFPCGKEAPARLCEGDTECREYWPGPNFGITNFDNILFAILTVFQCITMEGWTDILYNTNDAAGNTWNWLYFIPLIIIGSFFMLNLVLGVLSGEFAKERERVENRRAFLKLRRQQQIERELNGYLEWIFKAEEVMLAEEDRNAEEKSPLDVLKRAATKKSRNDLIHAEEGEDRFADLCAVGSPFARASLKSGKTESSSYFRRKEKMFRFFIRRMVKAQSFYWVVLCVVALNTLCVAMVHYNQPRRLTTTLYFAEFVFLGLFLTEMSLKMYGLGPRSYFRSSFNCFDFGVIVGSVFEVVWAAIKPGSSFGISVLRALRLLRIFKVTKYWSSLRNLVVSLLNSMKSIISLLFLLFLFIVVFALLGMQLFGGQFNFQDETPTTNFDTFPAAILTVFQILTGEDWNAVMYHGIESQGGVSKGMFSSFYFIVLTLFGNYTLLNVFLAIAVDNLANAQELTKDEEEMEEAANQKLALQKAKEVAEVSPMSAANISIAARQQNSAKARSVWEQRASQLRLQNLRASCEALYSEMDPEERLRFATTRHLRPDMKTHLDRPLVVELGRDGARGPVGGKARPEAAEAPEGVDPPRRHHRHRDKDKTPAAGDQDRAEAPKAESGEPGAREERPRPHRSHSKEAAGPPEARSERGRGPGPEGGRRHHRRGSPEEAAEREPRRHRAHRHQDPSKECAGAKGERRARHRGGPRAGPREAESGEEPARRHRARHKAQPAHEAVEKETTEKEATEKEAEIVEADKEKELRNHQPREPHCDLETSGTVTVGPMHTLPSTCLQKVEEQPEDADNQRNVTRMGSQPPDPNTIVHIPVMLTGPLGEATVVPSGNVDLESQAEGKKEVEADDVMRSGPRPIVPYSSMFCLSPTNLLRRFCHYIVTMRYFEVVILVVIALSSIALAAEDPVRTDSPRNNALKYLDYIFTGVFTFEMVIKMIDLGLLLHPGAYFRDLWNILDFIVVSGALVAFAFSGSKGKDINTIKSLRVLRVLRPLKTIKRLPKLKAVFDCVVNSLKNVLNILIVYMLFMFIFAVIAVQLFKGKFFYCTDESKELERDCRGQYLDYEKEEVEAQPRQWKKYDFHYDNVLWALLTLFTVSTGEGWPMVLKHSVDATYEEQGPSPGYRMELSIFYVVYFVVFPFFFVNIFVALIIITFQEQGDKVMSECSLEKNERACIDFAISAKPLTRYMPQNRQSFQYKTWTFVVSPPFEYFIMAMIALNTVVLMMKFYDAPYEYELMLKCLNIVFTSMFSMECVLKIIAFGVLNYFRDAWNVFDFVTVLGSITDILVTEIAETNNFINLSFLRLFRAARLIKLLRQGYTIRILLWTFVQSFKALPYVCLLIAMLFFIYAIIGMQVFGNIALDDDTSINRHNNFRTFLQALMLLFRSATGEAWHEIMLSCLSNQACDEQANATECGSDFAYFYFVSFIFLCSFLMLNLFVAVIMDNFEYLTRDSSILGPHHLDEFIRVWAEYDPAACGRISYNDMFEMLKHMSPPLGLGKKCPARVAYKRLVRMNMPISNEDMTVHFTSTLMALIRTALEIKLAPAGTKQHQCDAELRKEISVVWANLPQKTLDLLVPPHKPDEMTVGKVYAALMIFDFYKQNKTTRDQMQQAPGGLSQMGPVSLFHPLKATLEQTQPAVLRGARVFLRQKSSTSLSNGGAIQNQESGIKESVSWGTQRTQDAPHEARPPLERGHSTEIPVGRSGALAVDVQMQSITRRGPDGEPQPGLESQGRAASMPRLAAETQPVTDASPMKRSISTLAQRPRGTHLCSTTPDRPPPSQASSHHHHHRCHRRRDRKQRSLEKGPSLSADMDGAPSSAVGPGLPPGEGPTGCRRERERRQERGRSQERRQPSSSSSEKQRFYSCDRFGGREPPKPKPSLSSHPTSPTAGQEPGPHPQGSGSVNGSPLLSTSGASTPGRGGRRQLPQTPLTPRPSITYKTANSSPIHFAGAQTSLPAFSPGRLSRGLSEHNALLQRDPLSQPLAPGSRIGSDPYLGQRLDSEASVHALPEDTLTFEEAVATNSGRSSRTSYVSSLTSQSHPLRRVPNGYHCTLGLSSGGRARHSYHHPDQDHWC
Sequence of Voltage-gated N-type calcium channel alpha-1B subunit/Amyloid beta A4 precursor protein-binding family A member 1 (Q02410 whole entry): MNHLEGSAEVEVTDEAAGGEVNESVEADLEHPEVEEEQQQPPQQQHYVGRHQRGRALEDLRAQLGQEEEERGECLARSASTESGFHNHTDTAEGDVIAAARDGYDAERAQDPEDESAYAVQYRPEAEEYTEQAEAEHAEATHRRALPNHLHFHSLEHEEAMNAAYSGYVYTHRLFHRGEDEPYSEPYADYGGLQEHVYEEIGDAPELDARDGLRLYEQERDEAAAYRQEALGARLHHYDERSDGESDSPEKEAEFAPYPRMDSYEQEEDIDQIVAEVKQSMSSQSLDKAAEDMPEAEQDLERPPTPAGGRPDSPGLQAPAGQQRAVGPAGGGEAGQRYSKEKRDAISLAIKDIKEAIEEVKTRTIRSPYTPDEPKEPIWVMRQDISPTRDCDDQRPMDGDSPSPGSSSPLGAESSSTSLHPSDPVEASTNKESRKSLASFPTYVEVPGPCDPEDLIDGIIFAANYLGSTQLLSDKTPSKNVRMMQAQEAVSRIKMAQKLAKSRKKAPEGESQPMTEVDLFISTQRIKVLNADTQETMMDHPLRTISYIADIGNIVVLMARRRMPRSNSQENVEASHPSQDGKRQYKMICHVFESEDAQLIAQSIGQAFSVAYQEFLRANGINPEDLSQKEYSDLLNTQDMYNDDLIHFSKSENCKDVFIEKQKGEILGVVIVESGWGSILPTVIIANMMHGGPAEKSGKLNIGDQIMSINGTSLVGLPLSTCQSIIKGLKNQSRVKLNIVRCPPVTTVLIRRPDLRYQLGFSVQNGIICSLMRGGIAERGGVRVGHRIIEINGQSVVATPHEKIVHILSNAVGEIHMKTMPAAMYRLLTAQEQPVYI

For the molecule `COc1ccc(/C=C2\SC(=S)N(CCC(=O)Nc3ccc(C(=O)O)cc3)C2=O)cc1OC`, the IC50 in assay [1] is > 50 µM (inactive).
For `COc1ccc(Nc2ccc3c(c2)=NC2(CCCCC2)[N+]=3[O-])cc1`, in assay [2], the IC50 is 12.2 µM (active). In addition, the AC50 in the assay on INS1 was 1.67 µM (active).

These data come from ChEMBL document CHEMBL1201862, “PubChem BioAssay data set” (2004).
